Assay results taken from EPA's ToxValDB 9.5 (doi:10.2903/j.efsa.2006.68r).
Values after ≈ are worked out from the molar mass of the structure shown.

Columns and labels:
[1] = test system: Typhlodromus pyri; experiment: LR50; higher = less toxic; conditions: not reported; mortality
[2] = test system: Aphidius rhopalosiphi; experiment: LR50; higher = less toxic; conditions: not reported; mortality
[3] = test system: Oncorhynchus mykiss
[4] = test system: Oryctolagus sp.; conditions: reproduction developmental; clinical signs
[5] = test system: Bibionidae; conditions: chronic/long-term; duration: 28 days
[6] = test system: Colinus virginianus
[7] = test system: Apis mellifera; conditions: acute, mortality
[8] = test system: Rattus norvegicus; conditions: for NOAEL: neurology
[9] = test system: Daphnia magna; conditions: chronic/long-term; duration: 21 days
[10] = test system: Pontoscolex corethrurus

CCOP(=O)(SC(C)CC)SC(C)CC (configuration not stated) [Cadusafos]
LR50 [1]: 44.4 g/ha
LR50 [2]: 3.75 g/ha
LC50 ([3]; acute, duration: 96 hours, mortality): 130 µg/mL (≈ 481 µM)
NOEC ([3]; chronic/long-term, duration: 95 days): 5.22 mg/L
NOAEL [4]: 0.3 mg/kg-day
NOEC [5]: 32 µg/kg
LC50 ([6]; acute, oral, diet, mortality): 10.8 mg/kg-day
LD50 ([6]; acute, oral, mortality): 16.1 mg/kg-day
NOEL ([6]; reproduction developmental): ≥ 1.1 mg/kg-day
LD50 ([7]; dermal): 1.8 µg/piece
LD50 ([7]; oral, unspecified): 2.07 µg/piece
LD50 ([8]; acute, oral, mortality): 37.1 mg/kg
NOAEL ([8]; chronic, duration: 2 years, F): 0.045 mg/kg-day
NOAEL ([8]; subchronic, duration: 90 days, oral, diet): 0.067 mg/kg-day
NOEC [9]: 0.231 mg/L
LC50 ([10]; acute, mortality): 12.5 mg/kg
NOEC ([10]; chronic/long-term, reproduction): 1.8 mg/kg
